Results taken from publication PMC11701928, “Co-crystal structure of Helicobacter pylori biotin protein ligase with biotinyl-5-ATP” (Acta Crystallographica Section F: Structural Biology …, 2025).

Molecular target: T1, HpBPL (Helicobacter pylori, UniProt B5Z8D8)
T1 construct: gene HPG27_1085
T1 sequence (B5Z8D8 1-212): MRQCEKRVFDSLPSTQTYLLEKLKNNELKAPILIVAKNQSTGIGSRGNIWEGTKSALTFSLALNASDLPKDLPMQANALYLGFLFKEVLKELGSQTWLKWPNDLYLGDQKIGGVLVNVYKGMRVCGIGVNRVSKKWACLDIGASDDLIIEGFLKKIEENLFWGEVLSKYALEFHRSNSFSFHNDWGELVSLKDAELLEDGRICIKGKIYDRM
Test: turnover to biotinyl-5-ATP seen in crystal structure
Type: biochemical
Details: 10 min

SMILES | turnover to biotinyl-5-ATP seen in crystal structure (6 mM ATP with 6 mM biotin and 6 mM MgCl2, 25 °C) | turnover to biotinyl-5-ATP seen in crystal structure (6 mM biotin with 6 mM ATP and 6 mM MgCl2, 25 °C)
Nc1ncnc2c1ncn2[C@@H]1O[C@H](COP(=O)(O)OP(=O)(O)OP(=O)(O)O)[C@@H](O)[C@H]1O [ATP] | catalytically active and generates biotinyl-5-ATP upon incubation with MgCl2, ATP and biotin | –
O=C(O)CCCC[C@@H]1SC[C@@H]2NC(=O)N[C@@H]21 [biotin] | – | catalytically active and generates biotinyl-5-ATP upon incubation with MgCl2, ATP and biotin
